A compilation of properties of binary mixtures (doi:10.1021/acs.iecr.1c02970)

Test: xn = mol fraction of the nth substance listed
Settings: 100 kPa, x2 = 0

O + CC[n+]1ccn(C)c1.CS(=O)(=O)[O-]
Settings | electrical conductivity [S/m] | speed of sound [m/s] | viscosity [mPa·s]
293.15 K | – | – | 1.002
303.15 K | 0.0001 | – | 0.797
313.15 K | 0.0002 | 1529.2 | 0.653
318.15 K | – | 1536.7 | –
343.15 K | 0.0018 | 1555.1 | 0.4039
353.15 K | 0.0023 | – | 0.3544
